The conditions of data set [1]: short acting NO donor, vendor reagent (Alexis); cited from earlier work.
The subject of data set [2] is TR4. The note with it: C2C12 cells, 250 μM H2O2 for 2 h; mRNA at 4 hr, protein at 8 hr.
Description: The levels of TR4 mRNA and proteins were measured by Q-PCR and Western blotting analyses.
To dissect potential molecular mechanism by which TR4 is involved in the ROS/DNA damage/DNA repair signal cascades, TR4 expression levels were examined upon exposure to genotoxic stress (such as H2O2).
Data set [3] has as its system TR4. Description: Stress-induced TR4 expression in wt MEF. Type of data set: cell-based, mice. The note with it: wt MEF treated with cobalt chloride to mimic hypoxia stress.

This is an account of results in patent US20090012019A1, “Methods and Compositions Related to TR4” (priority 2005, published 2009).

As to `Nc1n[n+](-c2ccc(Cl)c(Cl)c2)no1.[Cl-]` [GEA 3162, 1,2,3,4-oxatriazolium, 5-amino-3-(3,4-dichlorophenyl)-chloride], in data set [1], the halftime is ~3 min. For the compound `OO` [H2O2, hydrogen peroxide], the “TR4 mRNA and protein expression” value with TR4 [2] was “increased”. On to `[Cl][Co][Cl]` [cobalt chloride], for which, in the data set on TR4 [3], the TR4 expression entry is on record as “up-regulated”.
